Test results as given in US20020107209A1, “Triterpene saponins from soybeans for treating kidney disease” (priority 2000, published 2002).

Assays:
[1] = system: rodent models of polycystic kidney disease (PKD); experiment: Casein-based diet supplemented with crude saponin-enriched alcohol extract (SEAE), ginseng, genistein or L-arginine; earlier experiment; format: in vivo, mice; details: supplementation of the casein-based diet
Excerpt: These beneficial effects appeared unique to the saponins derived from soybeans as supplementation of the casein-based diet with (1) ginseng (also a saponin), (2) genistein, (an isoflavone naturally present in SPI) or (3) addition of the amino acid L-arginine to the casein to mimic the amino acid composition to that of the SPI had no effect on disease progression.
The major component of the SEAE was identified as soyasaponin Bb with smaller amounts of two or three unidentified saponins and trace amounts of genistein and daidzen, two naturally occurring isoflavones in soy protein. The inventors determined that the Group B soybean-derived saponins (soyasaponins), especially soyasaponin Bb, was an important contributor to the attenuation of cyst growth.

pcy mouse model of PKD = experiment: 90-day feeding trial in pcy mice: casein-based diet supplemented with Novasoy 400 or soyasaponin Bb concentrate; format: in vivo; details: for effect on attenuation of kidney size and cyst development: pcy mouse model of PKD, summary in words
Protocol: Experiments were conducted with a purified soyasaponin Bb concentrate for a feeding trial in the pcy mice.
The feeding trial, which followed the acquisition of this soyasaponin Bb concentrate, explored the possibility that this concentrate was an important contributor to the attenuation of disease progression in the pcy mouse. The protocol used in this trial involved the random assignment of young, male pcy mice to one of three dietary treatments and feeding these diets for 90 days, the usual time frame in these studies. The diets used in this feeding trial were:1) an unsupplemented casein-based diet, known to increase the severity of the renal cystic disease; 2) this casein-based diet supplemented with Novasoy 400®, a new, isoflavone-enhanced product containing low levels of the soyasaponins (ADM, Decatur, Ill.) or 3) the casein-based diet supplemented with the purified soyasaponin Bb concentrate prepared by Drs. Collins and Sarr.
After three months the mice were humanely euthanized and the kidney and liver tissues removed and stored at −80 degrees Celsius until measurements of tissue water content and cell volume could be taken. Organ water content was determined in the kidney and liver by measuring the difference between the wet weight of the tissue and its subsequent weight after freeze-drying. Plasma, obtained by centrifugation of the cardiac blood, was used for standard measurements of renal function, including total protein, urea, and creatinine concentrations. Soy protein fractions enriched in the soyasaponins are reportedly hypocholesterolemic when fed to hamsters (Gatchalian-Yee M. et al. Nutrition. 13:633-639,1997) and plasma cholesterol levels were also measured in the present experiment whenever the sample volume was adequate. Differences between treatment effects were assessed by a one-way ANOVA and the significance of these differences between means obtained by the Tukey's Honestly Significant Different Test.

[2] = pcy mice, 90 days, plasma from cardiac blood, mean ± SEM
[3] = pcy mice, 90 days, versus casein
[4] = pcy mice, 90 days, versus unsupplemented casein diet
[5] = pcy mice, diet fed 90 days, mean ± SEM
[6] = pcy mice, diet fed 90 days, mean ± SEM, 8 animals/group

| daily food intake (pcy mouse model of PKD; pcy mice, 90-day feeding trial) [g/day] | relative liver weight (pcy mouse model of PKD; [3]) | Final body wt (pcy mouse model of PKD; [5]) [g] | Liver water content (pcy mouse model of PKD; [5]) [g] | Liver wt (pcy mouse model of PKD; [5]) [g] | Liver wt (g/100 g body wt) (pcy mouse model of PKD; [5]) | SMILES | effect on disease progression [1] | Plasma cholesterol (pcy mouse model of PKD; [2]) [mM/L] | Plasma creatinine (pcy mouse model of PKD; [2]) [µM] | Plasma total protein (pcy mouse model of PKD; [2]) [g/L] | Plasma urea (pcy mouse model of PKD; [2]) [mM/L] | absolute and relative kidney weight and kidney water content (pcy mouse model of PKD; [3]) | plasma cholesterol levels (pcy mouse model of PKD; [4]) | plasma creatinine levels (pcy mouse model of PKD; [4]) | Kidney water content (g/left kidney) (pcy mouse model of PKD; pcy mice, 90 days, wet weight minus freeze-dried weight, mean ± SEM) | Total kidney wt (pcy mouse model of PKD; [6]) [g] | Total kidney wt (g/100 g body wt) (pcy mouse model of PKD; [6]) | effect on attenuation of kidney size and cyst development (pcy mouse model of PKD) | effect on attenuation of kidney size and cyst development (pcy mouse model of PKD; listed as soyasaponin Bb concentrate) |
| --- | --- | --- | --- | --- | --- | --- | --- | --- | --- | --- | --- | --- | --- | --- | --- | --- | --- | --- | --- |
| – | – | – | – | – | – | N=C(N)NCCC[C@H](N)C(=O)O [L-arginine] | no effect | – | – | – | – | – | – | – | – | – | – | – | – |
| – | – | – | – | – | – | O=c1c(-c2ccc(O)cc2)coc2cc(O)cc(O)c12 [genistein] | no effect | – | – | – | – | – | – | – | – | – | – | – | – |
| 3.3 ± 0.0 | not observed | 25.1 ± 0.1 | 0.82 ± 0.0 | 1.2 ± 0.2 | 4.6 ± 0.1 | C[C@@H]1O[C@@H](O[C@H]2[C@H](O[C@H]3[C@H](O[C@H]4CC[C@@]5(C)[C@@H](CC[C@]6(C)[C@@H]5CC=C5[C@@H]7CC(C)(C)C[C@@H](O)[C@]7(C)CC[C@]56C)[C@@]4(C)CO)O[C@H](C(=O)O)[C@@H](O)[C@@H]3O)O[C@H](CO)[C@H](O)[C@@H]2O)[C@H](O)[C@H](O)[C@H]1O [soyasaponin Bb, 3-O-(α-L-rhamnosyl-1→2-β-D-galactosyl-1→2-β-D-glucuronosyl)-soyasapogenol B] | – | 4.8 ± 0.3 | 17.5 ± 1.9 | 54.3 ± 1.1 | 19.5 ± 3.0 | marked reduction | lesser hypocholesterolemic effect | markedly reduced | 0.61 ± 0.1 | 1.3 ± 0.1 | 5.2 ± 0.3 | important beneficial effect | marked beneficial effect |
